Measured values as given in patent US20210330611A1, “THERAPY FOR NEUROLOGICAL DISEASES/DISORDERS” (priority 2020, published 2021).
Where a name gives a salt, the structure may show the parent alone. Read-outs that look alike come from different tables or passages of the source. Where a SMILES comes first, the peptide text is derived from it. Bridges are numbered along the chain shown (N, C = ends). [ ]: non-standard residue; d: D form. The star is where a group is joined. Ileψ(thiazoline)Cys = CC[C@H](C)[C@H](N)C1=N[C@H](C(=O)*)CS1; dOrn = NCCC[C@@H](N)C(=O)O

Legend:
primary rat microglia [1] = conditions: rat
[2] = test system: LPS-induced microglia activation; assay: Image-based assay of LPS-induced microglia activation (HTS and dose response); type: cell-based, rat; conditions: Rattus norvegicus, Microglia; for inhibition at 10 µM: primary microglia HTS, LPS stimulation, read-out: LPS % inhibition
in vitro [3] = conditions: rat, Cell Toxicity IC50 (uM) [cFib assay]
[4] = test system: fibrin-induced microglia activation; assay: Image-based assay of fibrin-induced microglia activation (HTS and dose response); type: cell-based, rat; conditions: for IC50 / inhibition at 10 µM: Rattus norvegicus, Microglia; for inhibition at 10 µM: primary microglia HTS, fibrin stimulation, read-out: Fibrin % inhibition
primary rat microglia [5] = conditions: rat; remark: listed apart in the source
in vitro [6] = conditions: rat
[7] = test system: fibrin- and LPS-induced microglia activation; assay: cells; type: cell-based, rat; conditions: for inhibition at 10 µM: Rattus norvegicus
primary rat microglia [8] = assay: Cell toxicity (dead cells, size <150 μm2) in coated fibrin (cFib) assay; conditions: primary microglia HTS;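 as to Fibrin % cell toxicity: share of dead cells sized under 150 µm2 at 10 µM in fibrin-stimulated microglia HTS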
primary rat microglia [9] = assay: Cell toxicity (dead cells, size <150 μm2) in LPS assay; conditions: for LPS % cell toxicity: primary microglia HTS, LPS stimulation, decreased size (<150 μm^2) as marker of toxicity
[10] = 48 h, Table 1, dose response 0.001-20 μM, triplicates, primary rat microglia, 48 h, read-out: LPS IC50
[11] = 48 h, increased cell size (>800 μm^2) as marker of activation
[12] = LPS-induced microglia activation, dose response, read-out: LPS IC50 (uM) (Suppl. Table 7)
[13] = dose response, LPS-induced microglia activation, read-out: LPS IC50
[14] = 48 h, Table 1, dose response 0.001-20 μM, triplicates, primary rat microglia, 48 h, read-out: Fibrin IC50
[15] = dose response, fibrin-induced microglia activation, read-out: Fibrin IC50
[16] = fibrin-induced microglia activation, dose response, read-out: Fibrin IC50 (uM) (Suppl. Table 7)
[17] = increased cell size (>800 μm^2) as marker of activation
[18] = HTS of 1907 compounds, quadrant by fibrin and LPS inhibition
[19] = Microglia, HTS hit classification, read-out: Hit
[20] = hit classification in microglia HTS, read-out: Cherry-picked Hit (Suppl. Table 7)
[21] = quadrant by fibrin and LPS inhibition in HTS of 1907 compounds
[22] = fibrin assay, dead cells (size <150 μm2)
[23] = fibrin stimulation, decreased size (<150 μm^2) as marker of toxicity
[24] = quadrant by fibrin and LPS inhibition, HTS at 10 μM

CN1CCN(CCCN2c3ccccc3Sc3ccc(C(F)(F)F)cc32)CC1 [Trifluoperazine dihydrochloride, reference compound]
Fibrin % cell toxicity (primary rat microglia [1]): 2%
IC50 [2, 10]: 6 µM
inhibition at 10 µM [2, 11]: 26%
IC50 [2, 12]: 6 µM
IC50 [2, 13]: 6 µM
IC50 (in vitro [3]; cFib assay): > 20 µM
IC50 [4, 14]: 12 µM
IC50 [4, 15]: 12 µM
IC50 [4, 16]: 12 µM
inhibition at 10 µM [4, 17]: 69%
LPS % cell toxicity (primary rat microglia [5]): 0%
IC50 (in vitro [6]): 12 µM
Quadrant (FIG. 5b) [7, 18]: Q3
inhibition at 10 µM [7, 19]: > 50%
inhibition at 10 µM [7, 20]: > 50%
Quadrant (FIG. 5b) ([7]; Table 1, screen at 10 μM): Q3
Quadrant (FIG. 5b) [7, 21]: Q3

Cc1cccc(C(=O)O)c1O [Hydroxytoluic acid, reference compound]
Fibrin % cell toxicity (primary rat microglia [1]): 1%
IC50 [2, 10]: > 20 µM
inhibition at 10 µM [2, 11]: 33%
IC50 [2, 12]: > 20 µM
IC50 [2, 13]: > 20 µM
IC50 (in vitro [3]): > 20 µM
IC50 [4, 14]: 20 µM
IC50 [4, 15]: 20 µM
IC50 [4, 16]: 20 µM
inhibition at 10 µM [4, 17]: 69%
LPS % cell toxicity (primary rat microglia [5]): 0%
IC50 (in vitro [6]): > 20 µM
Quadrant (FIG. 5b) [7, 18]: Q3
inhibition at 10 µM [7, 19]: > 50%
inhibition at 10 µM [7, 20]: > 50%
Quadrant (FIG. 5b) ([7]; Table 1, screen at 10 μM): Q3
Quadrant (FIG. 5b) [7, 21]: Q3

CCN1CCCC1CNC(=O)c1cc(S(=O)(=O)CC)c(N)cc1OC (centres unmarked) [Amisulpride, reference compound]
Fibrin % cell toxicity (primary rat microglia [8]; [22]): 1%
Fibrin % cell toxicity (primary rat microglia [8]; [23]): 2%
IC50 [2, 10]: > 20 µM
inhibition at 10 µM [2, 11]: 31%
IC50 [2, 12]: > 20 µM
IC50 [2, 13]: > 20 µM
inhibition at 10 µM ([2]; compounds at 10 μM): 12%
LPS % cell toxicity (primary rat microglia [9]): 1%
IC50 (in vitro [3]; cFib assay): > 20 µM
IC50 [4, 14]: 20 µM
IC50 [4, 15]: 20 µM
IC50 [4, 16]: 20 µM
inhibition at 10 µM ([4]; compounds at 10 μM): -5%
inhibition at 10 µM [4, 17]: 54%
LPS % cell toxicity (primary rat microglia [5]): 0%
IC50 (in vitro [6]): > 20 µM
Quadrant (FIG. 5b) [7, 18]: Q3
inhibition at 10 µM [7, 19]: > 50%
inhibition at 10 µM [7, 20]: > 50%
Quadrant (FIG. 5b) ([7]; Table 1, screen at 10 μM): Q3
Quadrant (FIG. 5b) [7, 21]: Q3
Quadrant (FIG. 5b) [7, 24]: Q4

C[C@H]1[C@H](OC(=O)CCC(=O)O)O[C@@H]2O[C@@]3(C)CC[C@H]4[C@H](C)CC[C@@H]1[C@@]24OO3 [Artesunate, reference compound]
Fibrin % cell toxicity (primary rat microglia [8]; [22]): 1%
Fibrin % cell toxicity (primary rat microglia [8]; [23]): 1%
IC50 [2, 10]: > 20 µM
inhibition at 10 µM [2, 11]: 20%
IC50 [2, 12]: > 20 µM
IC50 ([2]; Table 3, read-out: LPS IC50 (uM) (Suppl. Table 7)): > 20 µM
IC50 [2, 13]: > 20 µM
inhibition at 10 µM ([2]; compounds at 10 μM): 7%
LPS % cell toxicity (primary rat microglia [9]): 0%
IC50 (primary rat microglia [9]; read-out: Cell Toxicity IC50 (uM) [LPS assay], LPS assay): > 20 µM
IC50 (in vitro [3]; Table 3): > 20 µM
IC50 (in vitro [3]; cFib assay): > 20 µM
Fibrin Selectivity [4]: 3
Fibrin Selectivity (LOG10) [4]: 0.45
IC50 [4, 14]: 7 µM
IC50 ([4]; Table 3, read-out: Fibrin IC50 (uM) (Suppl. Table 7)): 7 µM
IC50 [4, 15]: 7 µM
IC50 [4, 16]: 7 µM
inhibition at 10 µM ([4]; compounds at 10 μM): 47%
inhibition at 10 µM [4, 17]: 63%
LPS % cell toxicity (primary rat microglia [5]): 0%
IC50 (in vitro [6]): > 20 µM
Quadrant (FIG. 5b) [7, 18]: Q3
inhibition at 10 µM ([7]; Microglia, Table 3, read-out: Cherry-picked Hit (Suppl. Table 7)): > 50%
inhibition at 10 µM [7, 19]: > 50%
Quadrant (FIG. 5b) ([7]; Table 1, screen at 10 μM): Q3
Quadrant (FIG. 5b) ([7]; Table 3, screen at 10 μM): Q3
Quadrant (FIG. 5b) [7, 21]: Q3
Quadrant (FIG. 5b) [7, 24]: Q4

CC[C@H](C)[C@H](N)C1=N[C@H](C(=O)N[C@@H](CC(C)C)C(=O)N[C@H](CCC(=O)O)C(=O)N[C@H](C(=O)N[C@H]2CCCCNC(=O)[C@H](CC(N)=O)NC(=O)[C@@H](CC(=O)O)NC(=O)[C@H](Cc3cnc[nH]3)NC(=O)[C@@H](Cc3ccccc3)NC(=O)[C@H]([C@@H](C)CC)NC(=O)[C@@H](CCCN)NC2=O)[C@@H](C)CC)CS1 [Bacitracin, reference compound] ({Ileψ(thiazoline)Cys}-L[dE]IK[dOrn]I[dF]H[dD]N; lactam 4-C)
Fibrin % cell toxicity (primary rat microglia [8]; [22]): 0%
Fibrin % cell toxicity (primary rat microglia [8]; [23]): 1%
IC50 [2, 10]: > 20 µM
inhibition at 10 µM [2, 11]: 21%
IC50 [2, 12]: > 20 µM
IC50 [2, 13]: > 20 µM
inhibition at 10 µM ([2]; compounds at 10 μM): 6%
LPS % cell toxicity (primary rat microglia [9]): 0%
IC50 (in vitro [3]; cFib assay): > 20 µM
IC50 [4, 14]: > 20 µM
IC50 [4, 15]: > 20 µM
IC50 [4, 16]: > 20 µM
inhibition at 10 µM ([4]; compounds at 10 μM): -7%
inhibition at 10 µM [4, 17]: 82%
LPS % cell toxicity (primary rat microglia [5]): 1%
IC50 (in vitro [6]): > 20 µM
Quadrant (FIG. 5b) [7, 18]: Q3
inhibition at 10 µM [7, 19]: > 50%
inhibition at 10 µM [7, 20]: > 50%
Quadrant (FIG. 5b) ([7]; Table 1, screen at 10 μM): Q3
Quadrant (FIG. 5b) [7, 21]: Q3
Quadrant (FIG. 5b) [7, 24]: Q4
